Reference: patent US9809578B2, “Pyrazolyl urea, thiourea, guanidine and cyanoguanidine compounds as trkA kinase inhibitors” (Array BioPharma Inc., priority 2012, dated 2017)

How the values were obtained:
Format in all cases: biochemical
Conditions in all cases: 10 μM, ATP near Km
ARK5 = molecular target: T1, ARK5 (Homo sapiens, UniProt O60285); experiment: KinaseProfiler ARK5
T1 construct: purchased Millipore (KinaseProfiler service)
Text: (§1) The compound was run in duplicate at a concentration of ATP near the Km for each individual kinase according to Millipore's specifications.

AURKA = molecular target: T2, AURKA (Homo sapiens, UniProt O14965); experiment: KinaseProfiler AURKA
T2 construct: purchased Millipore (KinaseProfiler service)
Text: as §1

BrSK1 = molecular target: T3, BrSK1 (Homo sapiens, UniProt Q8TDC3); experiment: KinaseProfiler BrSK1
T3 construct: purchased Millipore (KinaseProfiler service)
Text: as §1

BrSK2 = molecular target: T4, BrSK2 (Homo sapiens, UniProt Q8IWQ3); experiment: KinaseProfiler BrSK2
T4 construct: purchased Millipore (KinaseProfiler service)
Text: as §1

CAMK1 = molecular target: T5, CAMK1 (Homo sapiens, UniProt Q14012); experiment: KinaseProfiler CAMK1
T5 construct: purchased Millipore (KinaseProfiler service)
Text: as §1

CAMK2b = molecular target: T6, CAMK2b (Homo sapiens, UniProt Q13554); experiment: KinaseProfiler CAMK2b
T6 construct: purchased Millipore (KinaseProfiler service)
Text: as §1

CAMK2g = molecular target: T7, CAMK2g (Homo sapiens, UniProt Q13555); experiment: KinaseProfiler CAMK2g
T7 construct: purchased Millipore (KinaseProfiler service)
Text: as §1

CDK2/cyclinA = molecular target: T8, CDK2/cyclinA (Homo sapiens, UniProt P24941); experiment: KinaseProfiler CDK2/cyclinA
T8 construct: purchased Millipore, Inc. (KinaseProfiler service)
Text: as §1

CHK2 = molecular target: T9, CHK2 (Homo sapiens, UniProt O96017); experiment: KinaseProfiler CHK2
T9 construct: purchased Millipore, Inc. (KinaseProfiler service)
Text: as §1

CK1_y = experiment: KinaseProfiler CK1_y
EphA3 = molecular target: T10, EphA3 (Homo sapiens, UniProt P29320); experiment: KinaseProfiler EphA3
T10 construct: purchased Millipore, Inc. (KinaseProfiler service)
Text: as §1

FAK = molecular target: T11, FAK (Homo sapiens, UniProt Q05397); experiment: KinaseProfiler FAK
T11 construct: purchased Millipore, Inc. (KinaseProfiler service)
Text: as §1

Fer = molecular target: T12, Fer (Homo sapiens, UniProt P16591); experiment: KinaseProfiler Fer
T12 construct: purchased Millipore, Inc. (KinaseProfiler service)
Text: as §1

FGFR1 = molecular target: T13, FGFR1 (Homo sapiens, UniProt P11362); experiment: KinaseProfiler FGFR1
T13 construct: purchased Millipore, Inc. (KinaseProfiler service)
Text: as §1

Flt3 = molecular target: T14, Flt3 (Homo sapiens, UniProt P36888); experiment: KinaseProfiler Flt3
T14 construct: purchased Millipore, Inc. (KinaseProfiler service)
Text: as §1

Flt4 = molecular target: T15, Flt4 (Homo sapiens, UniProt P35916); experiment: KinaseProfiler Flt4
T15 construct: purchased Millipore, Inc. (KinaseProfiler service)
Text: as §1

Fms = molecular target: T16, Fms (Homo sapiens, UniProt P07333); experiment: KinaseProfiler Fms
T16 construct: purchased Millipore, Inc. (KinaseProfiler service)
Text: as §1

IGF-1R = molecular target: T17, IGF-1R (Homo sapiens, UniProt P08069); experiment: KinaseProfiler IGF-1R
T17 construct: purchased Millipore, Inc. (KinaseProfiler service)
Text: as §1

IR Activated = molecular target: T18, IR Activated (Homo sapiens, UniProt P06213); experiment: KinaseProfiler IR Activated
T18 construct: purchased Millipore, Inc. (KinaseProfiler service)
Text: as §1

LOK = molecular target: T19, LOK (Homo sapiens, UniProt O94804); experiment: KinaseProfiler LOK
T19 construct: purchased Millipore, Inc. (KinaseProfiler service)
Text: as §1

Lyn = molecular target: T20, Lyn (Homo sapiens, UniProt P07948); experiment: KinaseProfiler Lyn
T20 construct: purchased Millipore, Inc. (KinaseProfiler service)
Text: as §1

MAPKAP-K5 = molecular target: T21, MAPKAP-K5 (Homo sapiens, UniProt Q8IW41); experiment: KinaseProfiler MAPKAP-K5
T21 construct: purchased Millipore, Inc. (KinaseProfiler service)
Text: as §1

MKK6 = molecular target: T22, MKK6 (Homo sapiens, UniProt P52564); experiment: KinaseProfiler MKK6
T22 construct: purchased Millipore, Inc. (KinaseProfiler service)
Text: as §1

MLK1 = molecular target: T23, MLK1 (Homo sapiens, UniProt P80192); experiment: KinaseProfiler MLK1
T23 construct: purchased Millipore, Inc. (KinaseProfiler service)
Text: as §1

NEK3 = molecular target: T24, NEK3 (Homo sapiens, UniProt P51956); experiment: KinaseProfiler NEK3
T24 construct: purchased Millipore, Inc. (KinaseProfiler service)
Text: as §1

p38gamma = molecular target: T25, p38gamma (Homo sapiens, UniProt P53778); experiment: KinaseProfiler p38gamma
T25 construct: purchased Millipore, Inc. (KinaseProfiler service)
Text: as §1

PAK2 = molecular target: T26, PAK2 (Homo sapiens, UniProt Q13177); experiment: KinaseProfiler PAK2
T26 construct: purchased Millipore, Inc. (KinaseProfiler service)
Text: as §1

Pim-2 = molecular target: T27, Pim-2 (Homo sapiens, UniProt Q9P1W9); experiment: KinaseProfiler Pim-2
T27 construct: purchased Millipore, Inc. (KinaseProfiler service)
Text: as §1

PKAC-alpha = molecular target: T28, PKAC-alpha (Homo sapiens, UniProt P17612); experiment: KinaseProfiler PKAC-alpha
T28 construct: purchased Millipore, Inc. (KinaseProfiler service)
Text: as §1

PKCalpha = molecular target: T29, PKCalpha (Homo sapiens, UniProt P17252); experiment: KinaseProfiler PKCalpha
T29 construct: purchased Millipore, Inc. (KinaseProfiler service)
Text: as §1

PKCepsilon = molecular target: T30, PKCepsilon (Homo sapiens, UniProt Q02156); experiment: KinaseProfiler PKCepsilon
T30 construct: purchased Millipore, Inc. (KinaseProfiler service)
Text: as §1

PKD1 = molecular target: T31, PKD1 (Homo sapiens, UniProt Q15139); experiment: KinaseProfiler PKD1
T31 construct: purchased Millipore, Inc. (KinaseProfiler service)
Text: as §1

Plk3 = molecular target: T32, Plk3 (Homo sapiens, UniProt Q9H4B4); experiment: KinaseProfiler Plk3
T32 construct: purchased Millipore, Inc. (KinaseProfiler service)
Text: as §1

PTK6 = molecular target: T33, PTK6 (Homo sapiens, UniProt Q13882); experiment: KinaseProfiler PTK6
T33 construct: purchased Millipore, Inc. (KinaseProfiler service)
Text: as §1

Ron = molecular target: T34, Ron (Homo sapiens, UniProt Q04912); experiment: KinaseProfiler Ron
T34 construct: purchased Millipore, Inc. (KinaseProfiler service)
Text: as §1

Rsk3 = molecular target: T35, Rsk3 (Homo sapiens, UniProt Q15349); experiment: KinaseProfiler Rsk3
T35 construct: purchased Millipore, Inc. (KinaseProfiler service)
Text: as §1

SRPK1 = molecular target: T36, SRPK1 (Homo sapiens, UniProt Q96SB4); experiment: KinaseProfiler SRPK1
T36 construct: purchased Millipore, Inc. (KinaseProfiler service)
Text: as §1

SRPK2 = molecular target: T37, SRPK2 (Homo sapiens, UniProt P78362); experiment: KinaseProfiler SRPK2
T37 construct: purchased Millipore, Inc. (KinaseProfiler service)
Text: as §1

TAK1 = molecular target: T38, TAK1 (Homo sapiens, UniProt O43318); experiment: KinaseProfiler TAK1
T38 construct: purchased Millipore, Inc. (KinaseProfiler service)
Text: as §1

TSSK2 = molecular target: T39, TSSK2 (Homo sapiens, UniProt Q96PF2); experiment: KinaseProfiler TSSK2
T39 construct: purchased Millipore, Inc. (KinaseProfiler service)
Text: as §1

Txk = molecular target: T40, Txk (Homo sapiens, UniProt P42681); experiment: KinaseProfiler Txk
T40 construct: purchased Millipore, Inc. (KinaseProfiler service)
Text: as §1

WNK3 = molecular target: T41, WNK3 (Homo sapiens, UniProt Q9BYP7); experiment: KinaseProfiler WNK3
T41 construct: purchased Millipore, Inc. (KinaseProfiler service)
Text: as §1

ZAP-70 = molecular target: T42, ZAP-70 (Homo sapiens, UniProt P43403); experiment: KinaseProfiler ZAP-70
T42 construct: purchased Millipore, Inc. (KinaseProfiler service)
Text: as §1

T32 sequence (Q9H4B4 whole entry): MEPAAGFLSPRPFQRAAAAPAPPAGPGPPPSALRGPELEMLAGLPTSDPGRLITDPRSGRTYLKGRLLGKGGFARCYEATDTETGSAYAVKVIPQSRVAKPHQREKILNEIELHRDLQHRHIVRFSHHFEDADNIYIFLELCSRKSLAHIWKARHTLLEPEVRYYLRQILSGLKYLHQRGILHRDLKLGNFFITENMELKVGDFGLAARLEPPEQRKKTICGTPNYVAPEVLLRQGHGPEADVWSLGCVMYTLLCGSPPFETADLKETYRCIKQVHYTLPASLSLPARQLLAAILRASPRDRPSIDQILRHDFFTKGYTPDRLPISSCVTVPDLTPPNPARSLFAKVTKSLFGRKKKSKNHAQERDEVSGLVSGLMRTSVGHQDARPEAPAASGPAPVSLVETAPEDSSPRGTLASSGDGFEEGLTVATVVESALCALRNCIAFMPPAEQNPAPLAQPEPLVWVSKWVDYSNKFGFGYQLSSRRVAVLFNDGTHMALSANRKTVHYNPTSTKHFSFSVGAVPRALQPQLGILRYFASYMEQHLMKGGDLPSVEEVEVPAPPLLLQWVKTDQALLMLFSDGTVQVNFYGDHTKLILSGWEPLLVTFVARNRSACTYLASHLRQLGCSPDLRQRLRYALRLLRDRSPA
T15 sequence (P35916 25-1363): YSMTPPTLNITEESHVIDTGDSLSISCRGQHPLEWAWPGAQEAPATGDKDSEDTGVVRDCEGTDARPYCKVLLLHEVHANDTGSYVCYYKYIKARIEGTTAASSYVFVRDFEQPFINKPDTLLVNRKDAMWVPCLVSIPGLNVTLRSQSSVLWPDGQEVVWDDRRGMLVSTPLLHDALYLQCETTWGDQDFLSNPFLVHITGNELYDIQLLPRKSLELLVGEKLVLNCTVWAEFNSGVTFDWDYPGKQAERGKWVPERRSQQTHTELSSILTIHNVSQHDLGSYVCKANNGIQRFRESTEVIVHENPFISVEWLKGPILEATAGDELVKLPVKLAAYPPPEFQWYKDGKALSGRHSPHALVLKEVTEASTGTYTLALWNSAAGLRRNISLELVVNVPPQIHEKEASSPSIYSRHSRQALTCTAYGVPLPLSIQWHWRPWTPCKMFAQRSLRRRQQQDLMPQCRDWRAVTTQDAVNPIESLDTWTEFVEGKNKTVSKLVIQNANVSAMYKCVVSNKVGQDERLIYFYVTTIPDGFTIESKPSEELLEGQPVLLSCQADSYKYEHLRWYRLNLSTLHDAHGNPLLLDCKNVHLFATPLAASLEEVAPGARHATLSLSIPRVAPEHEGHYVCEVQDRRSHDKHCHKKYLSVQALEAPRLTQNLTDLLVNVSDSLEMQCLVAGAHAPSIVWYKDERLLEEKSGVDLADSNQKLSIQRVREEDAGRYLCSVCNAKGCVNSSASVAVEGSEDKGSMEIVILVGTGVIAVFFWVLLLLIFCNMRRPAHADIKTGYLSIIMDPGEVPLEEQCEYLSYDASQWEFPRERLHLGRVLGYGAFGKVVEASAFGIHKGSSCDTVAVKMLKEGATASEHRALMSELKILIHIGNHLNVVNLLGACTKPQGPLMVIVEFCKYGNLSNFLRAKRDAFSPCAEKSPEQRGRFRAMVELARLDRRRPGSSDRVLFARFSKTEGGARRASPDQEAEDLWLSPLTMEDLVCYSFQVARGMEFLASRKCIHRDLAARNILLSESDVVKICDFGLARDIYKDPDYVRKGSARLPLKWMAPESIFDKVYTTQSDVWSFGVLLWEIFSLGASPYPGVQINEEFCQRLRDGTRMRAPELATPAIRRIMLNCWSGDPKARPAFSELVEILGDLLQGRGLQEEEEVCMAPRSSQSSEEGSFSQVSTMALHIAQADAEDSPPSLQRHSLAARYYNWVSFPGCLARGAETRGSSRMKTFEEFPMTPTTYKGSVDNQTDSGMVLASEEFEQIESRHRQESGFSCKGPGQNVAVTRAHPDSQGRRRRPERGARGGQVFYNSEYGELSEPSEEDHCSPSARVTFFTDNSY
T4 sequence (Q8IWQ3 whole entry): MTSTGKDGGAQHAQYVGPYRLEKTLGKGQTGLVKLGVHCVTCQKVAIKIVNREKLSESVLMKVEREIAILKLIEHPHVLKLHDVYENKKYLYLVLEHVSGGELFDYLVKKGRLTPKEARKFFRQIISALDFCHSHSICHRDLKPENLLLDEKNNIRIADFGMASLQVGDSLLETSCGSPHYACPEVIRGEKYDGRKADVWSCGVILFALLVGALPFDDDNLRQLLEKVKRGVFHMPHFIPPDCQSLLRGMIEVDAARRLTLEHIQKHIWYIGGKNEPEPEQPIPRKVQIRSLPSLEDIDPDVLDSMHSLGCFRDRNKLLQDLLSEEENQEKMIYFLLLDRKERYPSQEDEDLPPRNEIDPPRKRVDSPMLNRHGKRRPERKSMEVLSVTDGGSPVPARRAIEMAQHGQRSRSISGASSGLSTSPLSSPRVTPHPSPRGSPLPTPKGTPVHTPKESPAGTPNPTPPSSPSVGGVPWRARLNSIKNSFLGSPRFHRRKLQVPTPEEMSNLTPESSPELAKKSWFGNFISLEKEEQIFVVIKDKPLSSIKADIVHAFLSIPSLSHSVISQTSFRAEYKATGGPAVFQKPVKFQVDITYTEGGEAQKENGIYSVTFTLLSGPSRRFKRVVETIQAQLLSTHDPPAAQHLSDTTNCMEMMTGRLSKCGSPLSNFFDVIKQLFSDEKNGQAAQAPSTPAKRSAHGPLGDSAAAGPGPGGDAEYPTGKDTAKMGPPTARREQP
T22 sequence (P52564 whole entry): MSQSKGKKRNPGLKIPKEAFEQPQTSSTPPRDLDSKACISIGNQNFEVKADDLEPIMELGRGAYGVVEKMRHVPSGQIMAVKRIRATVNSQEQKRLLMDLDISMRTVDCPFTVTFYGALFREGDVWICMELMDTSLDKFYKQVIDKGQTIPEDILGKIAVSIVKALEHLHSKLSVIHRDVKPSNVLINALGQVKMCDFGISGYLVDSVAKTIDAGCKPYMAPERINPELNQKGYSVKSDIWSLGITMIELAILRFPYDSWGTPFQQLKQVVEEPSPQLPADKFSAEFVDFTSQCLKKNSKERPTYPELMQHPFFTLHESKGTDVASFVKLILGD
T37 sequence (P78362 whole entry): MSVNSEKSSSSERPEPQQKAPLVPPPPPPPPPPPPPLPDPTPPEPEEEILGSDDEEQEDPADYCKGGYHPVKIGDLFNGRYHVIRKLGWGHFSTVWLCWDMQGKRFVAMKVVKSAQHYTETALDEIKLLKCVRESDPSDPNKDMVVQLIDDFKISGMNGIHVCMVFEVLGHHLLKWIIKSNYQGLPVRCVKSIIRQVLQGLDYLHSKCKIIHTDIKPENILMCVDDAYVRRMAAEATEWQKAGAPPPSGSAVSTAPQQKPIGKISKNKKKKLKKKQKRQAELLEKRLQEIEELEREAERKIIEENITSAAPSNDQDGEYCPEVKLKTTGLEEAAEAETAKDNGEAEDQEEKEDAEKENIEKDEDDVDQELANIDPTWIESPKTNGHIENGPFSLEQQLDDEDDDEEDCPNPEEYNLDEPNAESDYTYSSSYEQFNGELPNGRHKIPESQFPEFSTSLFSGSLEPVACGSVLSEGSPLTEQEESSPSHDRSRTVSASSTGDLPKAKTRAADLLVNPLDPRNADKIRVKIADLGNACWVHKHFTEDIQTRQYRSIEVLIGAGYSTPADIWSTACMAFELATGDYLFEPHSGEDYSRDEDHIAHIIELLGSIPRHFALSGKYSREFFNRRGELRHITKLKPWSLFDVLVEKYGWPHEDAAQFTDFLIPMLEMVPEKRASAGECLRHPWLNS
T2 sequence (O14965 whole entry): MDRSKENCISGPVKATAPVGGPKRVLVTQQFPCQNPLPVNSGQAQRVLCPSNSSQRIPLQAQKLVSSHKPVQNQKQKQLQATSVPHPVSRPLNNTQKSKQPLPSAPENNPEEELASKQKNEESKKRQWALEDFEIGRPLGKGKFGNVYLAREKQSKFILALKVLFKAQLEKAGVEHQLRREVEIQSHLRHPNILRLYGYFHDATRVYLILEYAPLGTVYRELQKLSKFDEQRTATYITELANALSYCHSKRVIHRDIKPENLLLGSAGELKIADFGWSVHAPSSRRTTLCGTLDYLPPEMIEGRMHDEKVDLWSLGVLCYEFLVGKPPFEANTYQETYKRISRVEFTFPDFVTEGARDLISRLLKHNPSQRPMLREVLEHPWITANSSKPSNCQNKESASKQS
T36 sequence (Q96SB4 whole entry): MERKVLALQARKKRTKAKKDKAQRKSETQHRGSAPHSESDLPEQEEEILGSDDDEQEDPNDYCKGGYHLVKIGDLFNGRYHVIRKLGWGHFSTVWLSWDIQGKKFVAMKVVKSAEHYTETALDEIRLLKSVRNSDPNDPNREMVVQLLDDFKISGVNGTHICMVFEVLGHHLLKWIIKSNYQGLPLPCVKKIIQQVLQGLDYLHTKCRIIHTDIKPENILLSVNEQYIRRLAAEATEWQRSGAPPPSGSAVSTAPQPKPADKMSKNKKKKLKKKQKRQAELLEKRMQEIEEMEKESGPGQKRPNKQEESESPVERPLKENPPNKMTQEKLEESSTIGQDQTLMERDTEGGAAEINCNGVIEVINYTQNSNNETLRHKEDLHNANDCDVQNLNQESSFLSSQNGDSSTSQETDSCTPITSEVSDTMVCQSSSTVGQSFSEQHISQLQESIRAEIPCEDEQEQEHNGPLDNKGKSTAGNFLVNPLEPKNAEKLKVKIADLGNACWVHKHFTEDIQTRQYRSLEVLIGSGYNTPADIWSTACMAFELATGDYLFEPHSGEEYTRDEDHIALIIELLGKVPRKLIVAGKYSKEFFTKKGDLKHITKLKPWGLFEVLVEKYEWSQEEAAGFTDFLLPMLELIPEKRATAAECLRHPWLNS

Cc1c(-c2cnn(C)c2)nn(-c2ccccc2)c1NC(=O)Nc1cc(C(F)(F)F)nn1-c1ccccc1 [Example 3, 1-(1′,4-dimethyl-1-phenyl-1H,1′H-[3,4′-bipyrazol]-5-yl)-3-(1-phenyl-3-(trifluoromethyl)-1H-pyrazol-5-yl)urea]
Avg POC (ARK5): 92.5 POC | Avg POC (AURKA): 121 POC | Avg POC (BrSK1): 127 POC | Avg POC (BrSK2): 135 POC | Avg POC (CAMK1): 103.5 POC | Avg POC (CAMK2b): 96.5 POC | Avg POC (CAMK2g): 112 POC | Avg POC (CDK2/cyclinA): 100.5 POC | Avg POC (CHK2): 126.5 POC | Avg POC (CK1_y): 98 POC | Avg POC (EphA3): 128.5 POC | Avg POC (FAK): 105.5 POC | Avg POC (Fer): 92.5 POC | Avg POC (FGFR1): 96 POC | Avg POC (Flt3): 71 POC | Avg POC (Flt4): 80.5 POC | Avg POC (Fms): 91.5 POC | Avg POC (IGF-1R): 74.5 POC | Avg POC (IR Activated): 99.5 POC | Avg POC (LOK): 97.5 POC | Avg POC (Lyn): 98 POC | Avg POC (MAPKAP-K5): 108.5 POC | Avg POC (MKK6): 132.5 POC | Avg POC (MLK1): 100.5 POC | Avg POC (NEK3): 105.5 POC | Avg POC (p38gamma): 114.5 POC | Avg POC (PAK2): 98 POC | Avg POC (Pim-2): 117.5 POC | Avg POC (PKAC-alpha): 136.5 POC | Avg POC (PKCalpha): 104 POC | Avg POC (PKCepsilon): 98 POC | Avg POC (PKD1): 100.5 POC | Avg POC (Plk3): 115 POC | Avg POC (PTK6): 110 POC | Avg POC (Ron): 90.5 POC | Avg POC (Rsk3): 104.5 POC | Avg POC (SRPK1): 111 POC | Avg POC (SRPK2): 112.5 POC | Avg POC (TAK1): 94 POC | Avg POC (TSSK2): 132.5 POC | Avg POC (Txk): 139.5 POC | Avg POC (WNK3): 108 POC | Avg POC (ZAP-70): 135 POC
